Data on 18 compounds can be found in patent publication US20240158412A1 (Faxian Therapeutics, LLC, priority 2021, published 2024).

Where only a bound is given, the exact number is not on record here.
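Note: fluorescence intensity readout of USP7 enzymatic activity, reaction incubated 90 min at room temperature.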

USP7, sequence (Q93009 whole entry): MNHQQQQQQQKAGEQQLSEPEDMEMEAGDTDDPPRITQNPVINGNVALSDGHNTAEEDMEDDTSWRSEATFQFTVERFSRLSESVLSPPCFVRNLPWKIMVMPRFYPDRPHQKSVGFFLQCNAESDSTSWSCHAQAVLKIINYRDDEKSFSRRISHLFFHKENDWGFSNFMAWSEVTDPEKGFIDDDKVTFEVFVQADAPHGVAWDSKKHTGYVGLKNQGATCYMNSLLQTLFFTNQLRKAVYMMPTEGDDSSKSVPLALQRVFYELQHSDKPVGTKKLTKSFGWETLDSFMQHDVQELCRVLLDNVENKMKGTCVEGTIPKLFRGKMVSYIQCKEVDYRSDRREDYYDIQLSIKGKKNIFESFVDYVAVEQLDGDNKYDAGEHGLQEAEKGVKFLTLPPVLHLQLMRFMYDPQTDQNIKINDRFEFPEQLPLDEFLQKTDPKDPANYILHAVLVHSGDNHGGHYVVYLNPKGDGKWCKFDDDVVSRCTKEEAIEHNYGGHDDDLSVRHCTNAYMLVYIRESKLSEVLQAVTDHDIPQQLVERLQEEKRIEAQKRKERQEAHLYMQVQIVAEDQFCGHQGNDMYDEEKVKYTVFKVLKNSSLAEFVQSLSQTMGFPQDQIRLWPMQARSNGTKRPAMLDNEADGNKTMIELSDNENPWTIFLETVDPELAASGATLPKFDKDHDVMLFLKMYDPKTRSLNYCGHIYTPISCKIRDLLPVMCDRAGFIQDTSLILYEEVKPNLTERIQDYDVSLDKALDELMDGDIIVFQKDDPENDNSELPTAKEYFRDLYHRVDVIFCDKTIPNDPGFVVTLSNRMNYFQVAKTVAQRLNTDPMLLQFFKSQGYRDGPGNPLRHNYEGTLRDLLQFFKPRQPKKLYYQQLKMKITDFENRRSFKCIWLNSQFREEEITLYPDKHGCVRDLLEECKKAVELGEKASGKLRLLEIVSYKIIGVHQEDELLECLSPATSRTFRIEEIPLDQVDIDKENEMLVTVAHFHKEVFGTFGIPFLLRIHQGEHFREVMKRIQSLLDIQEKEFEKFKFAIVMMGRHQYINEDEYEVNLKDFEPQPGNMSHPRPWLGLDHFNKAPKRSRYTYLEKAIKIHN

The experiment addresses USP7 (Homo sapiens, UniProt Q93009). In words: biochemical.
In general, IC50 refers to the concentration that gives 50% inhibition. Read a low IC50 as greater potency. Regarding `N#Cc1cc(-c2ccnc3cc(Cn4c(=O)ccn(CC(F)F)c4=O)sc23)c2c(c1)[C@@H]1C[C@@H]1CN2[C@H]1CCNC1` [Example 117d, (1aS,7bR)-4-[2-[[3-(2,2-difluoroethyl)-2,6-dioxo-pyrimidin-1-yl]methyl]thieno[3,2-b]pyridin-7-yl]-3-[(3S)-pyrrolidin-3-yl]-1,1a,2,7b-tetrahydrocyclopropa[c]quinoline-6-carbonitrile], the IC50 is under 10 nM.
The same measure for `CC1(C)C[C@H](N2CCCc3cc(Cl)cc(-c4ccnc5cc(CN6C(=O)CCC6=O)sc45)c32)CN1` [Example 119, (S)-1-((7-(6-chloro-1-(5,5-dimethylpyrrolidin-3-yl)-1,2,3,4-tetrahydroquinolin-8-yl)thieno[3,2-b]pyridin-2-yl)methyl)pyrrolidine-2,5-dione]: under 10 nM; for `Cc1cnn(Cc2cc3nccc(-c4cc(C#N)cc5c4N([C@@H]4CN(C)C(C)(C)C4)CCC5)c3s2)c(=O)c1` [Example 122, (S)-8-(2-((4-methyl-6-oxopyridazin-1(6H)-yl)methyl)thieno[3,2-b]pyridin-7-yl)-1-(1,5,5-trimethylpyrrolidin-3-yl)-1,2,3,4-tetrahydroquinoline-6-carbonitrile]: under 10 nM.
The figure for `CN1C[C@@H](N2CCCc3cc(C#N)cc(-c4ccnc5cc(Cn6c(=O)ccn(C)c6=O)sc45)c32)CC1(C)C` [Example 123, (S)-8-(2-((3-methyl-2,6-dioxo-2,3-dihydropyrimidin-1(6H)-yl)methyl)thieno[3,2-b]pyridin-7-yl)-1-(1,5,5-trimethylpyrrolidin-3-yl)-1,2,3,4-tetrahydroquinoline-6-carbonitrile] is under 10 nM; for `CC1(C)C[C@H](N2CCCc3cc(C#N)cc(-c4ccnc5cc(CN6C(=O)C7CC7C6=O)sc45)c32)CN1` (stereo partly drawn) [Example 124, 1-((S)-5,5-dimethylpyrrolidin-3-yl)-8-(2-((2,4-dioxo-3-azabicyclo[3.1.0]hexan-3-yl)methyl)thieno[3,2-b]pyridin-7-yl)-1,2,3,4-tetrahydroquinoline-6-carbonitrile] it is under 10 nM.
The same measure for `CC1(C)C[C@H](N2CCCc3cc(C#N)cc(-c4ccnc5cc(Cn6c(=O)ccn(CC(F)(F)F)c6=O)sc45)c32)CN1` [Example 125, (S)-1-(5,5-dimethylpyrrolidin-3-yl)-8-(2-((2,6-dioxo-3-(2,2,2-trifluoroethyl)-2,3-dihydropyrimidin-1(6H)-yl)methyl)thieno[3,2-b]pyridin-7-yl)-1,2,3,4-tetrahydroquinoline-6-carbonitrile]: under 10 nM; for `CCn1c(N(C)C)cc(=O)n(Cc2cc3nccc(-c4cc(C#N)cc5c4N([C@@H]4CNC(C)(C)C4)CCC5)c3s2)c1=O` [Example 126, (S)-8-(2-((4-(dimethylamino)-3-ethyl-2,6-dioxo-2,3-dihydropyrimidin-1(6H)-yl)methyl)thieno[3,2-b]pyridin-7-yl)-1-(5,5-dimethylpyrrolidin-3-yl)-1,2,3,4-tetrahydroquinoline-6-carbonitrile]: under 10 nM.
Regarding `CC1(C)C[C@H](N2CCCc3cc(C#N)cc(-c4ccnc5cc(CN6C(=O)CN(C7CC(F)(F)C7)C6=O)sc45)c32)CN1` [Example 127, (S)-8-(2-((3-(3,3-difluorocyclobutyl)-2,5-dioxoimidazolidin-1-yl)methyl)thieno[3,2-b]pyridin-7-yl)-1-(5,5-dimethylpyrrolidin-3-yl)-1,2,3,4-tetrahydroquinoline-6-carbonitrile], the IC50 was under 10 nM.
The same measure for `CC1(C)C[C@H](N2CCCc3cc(C#N)cc(-c4ccnc5cc(Cn6ncc(C7CC7)cc6=O)sc45)c32)CN1` [Example 128, (S)-8-(2-((4-cyclopropyl-6-oxopyridazin-1(6H)-yl)methyl)thieno[3,2-b]pyridin-7-yl)-1-(5,5-dimethylpyrrolidin-3-yl)-1,2,3,4-tetrahydroquinoline-6-carbonitrile]: under 10 nM; for `CC(C)c1cnn(Cc2cc3nccc(-c4cc(C#N)cc5c4N([C@@H]4CNC(C)(C)C4)CCC5)c3s2)c(=O)c1` [Example 129, (S)-1-(5,5-dimethylpyrrolidin-3-yl)-8-(2-((4-isopropyl-6-oxopyridazin-1(6H)-yl)methyl)thieno[3,2-b]pyridin-7-yl)-1,2,3,4-tetrahydroquinoline-6-carbonitrile]: under 10 nM; for `CC1(C)C[C@H](N2CCCc3cc(C#N)cc(-c4ccnc5cc(CN6C(=O)CCCC6=O)sc45)c32)CN1` [Example 130, (S)-1-(5,5-dimethylpyrrolidin-3-yl)-8-(2-((2,6-dioxopiperidin-1-yl)methyl)thieno[3,2-b]pyridin-7-yl)-1,2,3,4-tetrahydroquinoline-6-carbonitrile]: under 10 nM.
With `CC1(C)C[C@H](N2CCCc3cc(C#N)cc(-c4ccnc5cc(CN6C(=O)CN(C7CC7)C6=O)sc45)c32)CN1` [Example 131, (S)-8-(2-((3-cyclopropyl-2,5-dioxoimidazolidin-1-yl)methyl)thieno[3,2-b]pyridin-7-yl)-1-(5,5-dimethylpyrrolidin-3-yl)-1,2,3,4-tetrahydroquinoline-6-carbonitrile], the IC50 was under 10 nM.
Consider `Cc1cnn(Cc2cc3nccc(-c4cc(C#N)cc5c4N([C@@H]4CNC(C)(C)C4)CCO5)c3s2)c(=O)c1` [Example 134, (S)-4-(5,5-dimethylpyrrolidin-3-yl)-5-(2-((4-methyl-6-oxopyridazin-1(6H)-yl)methyl)thieno[3,2-b]pyridin-7-yl)-3,4-dihydro-2H-benzo[b][1,4]oxazine-7-carbonitrile], for which the IC50 is under 10 nM.
The figure for `CC1(C)C[C@H](N2CCOc3cc(C#N)cc(-c4ccnc5cc(Cn6ncc(C7CC7)cc6=O)sc45)c32)CN1` [Example 135, (S)-5-(2-((4-cyclopropyl-6-oxopyridazin-1(6H)-yl)methyl)thieno[3,2-b]pyridin-7-yl)-4-(5,5-dimethylpyrrolidin-3-yl)-3,4-dihydro-2H-benzo[b][1,4]oxazine-7-carbonitrile] is under 10 nM.
In turn, `CC1(C)C[C@H](N2CCOc3cc(C#N)cc(-c4ccnc5cc(Cn6ncc(C(C)(C)C)cc6=O)sc45)c32)CN1` [Example 136, (S)-5-(2-((4-(tert-butyl)-6-oxopyridazin-1(6H)-yl)methyl)thieno[3,2-b]pyridin-7-yl)-4-(5,5-dimethylpyrrolidin-3-yl)-3,4-dihydro-2H-benzo[b][1,4]oxazine-7-carbonitrile] registered an IC50 of under 10 nM.
The figure for `O=C1CCC(=O)N1Cc1cc2nccc(-c3cc(Cl)cc4c3N(C3CC5(CNC5)C3)CCC4)c2s1` [Example 137, 1-[[7-[1-(2-azaspiro[3.3]heptan-6-yl)-6-chloro-3,4-dihydro-2H-quinolin-8-yl]thieno[3,2-b]pyridin-2-yl]methyl]pyrrolidine-2,5-dione] is 10 to 100 nM; for `CN1CC2(CC(N3CCCc4cc(Cl)cc(-c5ccnc6cc(CN7C(=O)CCC7=O)sc56)c43)C2)C1` [Example 138, 1-[[7-[6-chloro-1-(2-methyl-2-azaspiro[3.3]heptan-6-yl)-3,4-dihydro-2H-quinolin-8-yl]thieno[3,2-b]pyridin-2-yl]methyl]pyrrolidine-2,5-dione] it is 10 to 100 nM.
The figure for `CN1C[C@@H](N2CCCc3cc(Cl)cc(-c4ccnc5cc(CN6C(=O)CCC6=O)sc45)c32)CC12CCC2` [Example 140, (S)-1-((7-(6-chloro-1-(5-methyl-5-azaspiro[3.4]octan-7-yl)-1,2,3,4-tetrahydroquinolin-8-yl)thieno[3,2-b]pyridin-2-yl)methyl)pyrrolidine-2,5-dione] is under 10 nM.
